Where two headings read alike, the source gives them in different places.
How the values were obtained:
[1] = biological target: T1, α1A Human Adrenergic Receptor (Homo sapiens, UniProt P25100); assay: Radioligand binding, [3H]prazosin, cloned human α1A adrenergic receptor; settings: pKi alpha-1 1a, [3H]prazosin, cloned human α1A receptor, LM(tk−) cell membranes
T1 construct: The entire coding region of α1A (1719 bp); expressed in transfected cells
T1 sequence (P25100 1-572): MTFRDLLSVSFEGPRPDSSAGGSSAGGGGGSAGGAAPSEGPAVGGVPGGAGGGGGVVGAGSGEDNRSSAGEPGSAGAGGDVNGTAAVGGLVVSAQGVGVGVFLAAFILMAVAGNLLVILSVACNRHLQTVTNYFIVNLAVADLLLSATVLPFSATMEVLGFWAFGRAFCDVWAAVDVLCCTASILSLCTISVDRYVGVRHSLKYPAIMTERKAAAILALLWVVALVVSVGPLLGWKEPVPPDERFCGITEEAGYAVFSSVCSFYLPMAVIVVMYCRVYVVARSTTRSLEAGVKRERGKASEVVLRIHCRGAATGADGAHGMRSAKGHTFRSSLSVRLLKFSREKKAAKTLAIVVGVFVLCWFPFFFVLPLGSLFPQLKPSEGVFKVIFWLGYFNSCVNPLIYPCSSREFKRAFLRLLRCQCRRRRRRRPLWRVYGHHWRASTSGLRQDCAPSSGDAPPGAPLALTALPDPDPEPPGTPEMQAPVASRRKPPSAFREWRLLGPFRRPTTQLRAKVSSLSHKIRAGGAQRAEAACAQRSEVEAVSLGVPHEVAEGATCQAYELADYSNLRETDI
How it was run: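 Transfected LM(tk−) cells are lysed by sonication and membranes collected at 30,000× g. Membranes then bind 0.5 nM [3H]prazosin for 20 min at 37° C, and the reaction is stopped by filtration over GF/B filters, with 10 μM phentolamine giving nonspecific binding.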

α2B receptor = biological target: T2, α2B receptor (Homo sapiens, UniProt P18089); assay: Competition binding, [3H]rauwolscine, human α2B receptor; settings: [3H]rauwolscine, human α2B receptor, LM(tk−) cells
T2 construct: host or cells: LM(tk-) cells, line L-NGC-α2B
T2 sequence (P18089 1-450): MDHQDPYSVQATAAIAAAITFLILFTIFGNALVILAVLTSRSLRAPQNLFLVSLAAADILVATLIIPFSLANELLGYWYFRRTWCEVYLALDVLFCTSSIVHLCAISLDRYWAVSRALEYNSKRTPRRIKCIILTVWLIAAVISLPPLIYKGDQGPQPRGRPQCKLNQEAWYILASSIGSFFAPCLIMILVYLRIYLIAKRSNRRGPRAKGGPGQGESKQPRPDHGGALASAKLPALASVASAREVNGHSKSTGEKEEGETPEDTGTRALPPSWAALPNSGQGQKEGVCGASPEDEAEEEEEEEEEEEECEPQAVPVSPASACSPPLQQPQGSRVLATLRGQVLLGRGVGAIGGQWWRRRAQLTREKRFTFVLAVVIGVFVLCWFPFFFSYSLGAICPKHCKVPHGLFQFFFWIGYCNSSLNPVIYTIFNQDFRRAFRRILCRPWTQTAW
How it was run: (§1)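 Lysates of LM(tk−) cells stably expressing human α2A, α2B or α2C receptors in 25 mM glycylglycine pH 7.6. Equilibrium competition against 0.5 nM [3H]rauwolscine, with 10 μM phentolamine defining nonspecific binding. Bound ligand separated by GF/B filtration.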

α2C receptor = biological target: T3, α2C receptor (Homo sapiens, UniProt P18825); assay: Competition binding, [3H]rauwolscine, human α2C receptor; settings: [3H]rauwolscine, human α2C receptor, LM(tk−) cells; read-out: pKi alpha-2 2c (converted)
T3 construct: host or cells: LM(tk-) cells, line L-α2C
T3 sequence (P18825 1-462): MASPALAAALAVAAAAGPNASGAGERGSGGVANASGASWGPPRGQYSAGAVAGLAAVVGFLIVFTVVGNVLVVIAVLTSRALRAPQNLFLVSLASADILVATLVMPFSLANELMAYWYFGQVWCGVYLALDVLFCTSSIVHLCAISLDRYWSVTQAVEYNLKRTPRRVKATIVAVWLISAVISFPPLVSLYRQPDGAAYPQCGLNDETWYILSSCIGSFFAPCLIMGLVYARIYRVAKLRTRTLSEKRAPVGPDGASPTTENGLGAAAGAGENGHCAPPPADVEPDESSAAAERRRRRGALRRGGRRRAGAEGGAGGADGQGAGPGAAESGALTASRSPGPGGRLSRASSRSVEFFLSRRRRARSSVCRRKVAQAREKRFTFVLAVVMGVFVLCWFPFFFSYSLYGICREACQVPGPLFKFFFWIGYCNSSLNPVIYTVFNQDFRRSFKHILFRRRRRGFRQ
How it was run: as §1

| Structure (SMILES) | Ki [1] | Ki (α2B receptor; pKi alpha-2 2b) | Ki (α2C receptor) | Ki (α2B receptor; read-out: pKi alpha-2 2b (converted)) |
| --- | --- | --- | --- | --- |
| CC1=C(C(=O)NCCCN2CCC(c3ccccc3)(c3ccccc3)CC2)C(c2ccc([N+](=O)[O-])cc2)C(C(=O)NC(C)C)=C(C)N1 (stereo not drawn) [Example 156, 1,4-Dihydro-3-(N-isopropyl) carboxamido-2,6-dimethyl-4-(4-nitrophenyl)-5-{N-[3-(^414-diphenylpiperidin-1-yl)propyl]}carboxamidopyridine] | 1320 nM | 562 nM | 219 nM | – |
| CC1=C(C(=O)NCCCN2CCC(c3ccccc3)(c3ccccc3)CC2)C(c2ccc([N+](=O)[O-])cc2)C(C(=O)OCCC#N)=C(C)N1 (stereo not drawn) [Example 160] | 251 nM | – | 155 nM | 148 nM |
| CNC(=O)C1=C(C)NC(C)=C(C(=O)NCCCN2CCC(O)(c3ccccc3)CC2)C1c1ccc([N+](=O)[O-])cc1 (stereo not drawn) [Example 162, 1,4-Dihydro-3-{N-[3-(4-hydroxy-4-phenylpiperidin-1-yl)propyl]}carboxamido-2,6-dimethyl-5-(N-methyl)carboxamido-4-(4-nitrophenyl)pyridine] | 1070 nM | 347 nM | 550 nM | – |

Source: patent US6608086B2, “Dihydropyridines and new uses thereof” (Synaptic Pharmaceutical Corporation, priority 1993, dated 2003)
